Series [1] relates to Streptococcus pneumoniae ATCC 49619. Kind of series: In-vitro MIC test (agar dilution, 5% sheep blood), S. pneumoniae. Format: cell-based. As to conditions: ATCC49619, Mueller Hinton agar containing 5% sheep blood, read-out: Minimum Inhibitory Concentrations (MIC) S. pneumoniae. An excerpt: (§1) The test methods used for verifying the antimicrobial action of compound within the scope of this invention are essentially the same as those described in PCT WO 95/25106, U.S. Pat. No. 5,668,286 and EP 0 750, 618 B1, with the difference that the strains of the organisms used for the MIC determinations in these patents and applications are Staphylococcus aureus ATCC 25923, Staphylococcus epidermidis ATCC 12828, Streptococcus pyogenes ATCC 19615.
(§2) The in-vitro MIC methods of test compounds were determined essentially as described in PCT WO 95/25106, U.S. Pat. No. 5,668,286 and EP 0 750 618 B1.
(§3) Overnight grown cultures of S. aureus organisms in Tryptic Soya broth were diluted in Mueller Hinton Broth to give optical density matching with MacFarland tube 0.5 standard. Cultures were further diluted 1:10 in Mueller Hinton broth. Using Denley's mutipoint inoculator, 10^4 cells were deposited on Mueller Hinton agar (Difco) containing range of 2 fold dilutions of test compounds. These plates were incubated for 24 hrs at 35° C. and MIC results recorded. MIC is defined as minimum drug concentration that inhibits test organisms. For determining MIC of test compounds against Streptococcus pneumoniae, Mueller Hinton agar containing 5% sheep blood was employed.
A general note: In agar dilution the substance is mixed into plates at graded concentrations.

For series [2], the system named is Enterococcus faecalis ATCC 29212. Kind of series: In-vitro MIC test (agar dilution), E. faecalis. In kind it is cell-based. As to conditions: ATCC29212, Mueller Hinton agar, 24 hrs at 35° C., read-out: Minimum Inhibitory Concentrations (MIC) E. faecalis.
Source text: as §1, §2, §3

For series [3], the system named is Methicillin Resistant Staphylococcus aureus MRSA-32. Kind of series: In-vitro MIC test (agar dilution), MRSA-32. To be noted: Staphylococcus aureus, MRSA; Mueller Hinton agar, 24 hrs at 35° C.; read-out: Minimum Inhibitory Concentrations (MIC) MRSA-32. Format: cell-based.
Source text: as §1, §2, §3

The test system of a further series is MRSA 32. The experiment in a line: Murine assay procedure (systemic MRSA 32 infection, oral treatment). Format: in vivo, swiss mice. To be noted: Staphylococcus aureus; oral administration, doses 1 hr and 4 hrs after infection; MRSA 32 infected mice; percentage survival on Day 7. On the procedure:
Oxazolidinone new chemical entities (NCEs) were evaluated for their in vivo efficacy in a murine infection caused by multi-drug resistant, methicillin resistant Staphylococcus aureus strain, referred to as MRSA 32, a clinical isolate obtained from a hospitalised patient. The procedure used for the murine assay is as follows:
Four weeks old swiss mice of 18-22 gm body weight were infected with MRSA 32 strain suspended in 5% Hog gastric Mucin. The infecting dose of bacteria was set at 1-2×10^8 CFU/animal. The infecting dose was administered in 0.5 ml volume injected into peritonial cavity of mice. The treatment with oxazolidinone NCEs was started one hour after infection by administering 100-200 μl of the suspensions of oxazolidinone compounds in 5% Tween 80 by oral gavage. A repeat dose was similarly administered 3 hrs later. Each oxazolidinone NCE was tested at 2-3 different dosages in the range of 2.5 mg/kg to 20 mg/kg. In each dose group 6 mice were included. As an infection control group 12 mice were infected with MRSA 32 strain without giving any treatment. Normally untreated infected mice die within 24 hrs. due to the systemic spread of infection through out the animal body. […] For compounds affording protection of MRSA infected mice, ED50 dosages were calculated on the basis of percentage survival on Day 7 after infection.
The in-vivo ED50 values using the test compounds were determined essentially by the method as described in PCT WO 95/25106, U.S. Pat. No. 5,668,286 and EP 0 750 618 B1.

As a reminder, the melting point is the temperature, or range, at which the solid turns liquid. As usually defined, the ED50 is the dose at which the effect has come halfway, by size or by number of responders.

In brackets after ≈: the same amount, converted by molar mass.

`CC(=O)NC[C@H]1CN(c2ccc(N3CCC(C(C#N)CO)CC3)c(F)c2)C(=O)O1` (stereo partly drawn) [Compound 17, (S)-N-{3-[4-(4-(1-cyano-2-hydroxyethyl)-piperidin-1-yl)-3-fluoro-phenyl]-2-oxo-oxazolidin-5-ylmethyl}-acetamide] had a melting point of 182 to 184 °C. Moreover, in series [1], the MIC amounted to 2 µg/mL (≈ 4.95 µM). Also, the MIC in series [2] came to 2 µg/mL (≈ 4.95 µM). Further, the MIC in series [3] was determined as 2 µg/mL (≈ 4.95 µM). Further, the ED50 with MRSA 32 was 20 mg/kg.

Source of the values: US20040235900A1, “Antimicrobial oxazolifinones with improved pharmacokinetic profile and safety advantages” (priority 2002, published 2004).
